The values below come from US5140009A (Tap Pharmaceuticals, Inc., priority 1990, dated 1992).

Numbered stars: 1 amine (or outer) side, 2 acyl side, 3 side chain; on linkers, the order of the positions; unused ones are H or OH. Square brackets hold non-standard residues; d marks the D form. Peptide text beside a SMILES is read from it. * marks the point of attachment. Propanoyl(3-(1-naphthyl)) = O=C(CCc1cccc2ccccc12)*; Propanoyl(3-indol-3-yl) = O=C(CCc1c[nH]c2ccccc12)*; Indole2carbonyl(5-F) = O=C(c1cc2cc(F)ccc2[nH]1)*; Propanoyl(3-(4-F-phenyl)) = O=C(CCc1ccc(F)cc1)*; Trp(5-F) = N[C@@H](Cc1c[nH]c2ccc(F)cc12)C(=O)O; dTrp(5-F) = N[C@H](Cc1c[nH]c2ccc(F)cc12)C(=O)O; dPhe(4-Cl) = N[C@H](Cc1ccc(Cl)cc1)C(=O)O; d1Nal = N[C@H](Cc1cccc2ccccc12)C(=O)O; d(hCit) = NC(=O)NCCCC[C@@H](N)C(=O)O; NMeY = CN[C@@H](Cc1ccc(O)cc1)C(=O)O; Benzoyl(4-F) = O=C(c1ccc(F)cc1)*; NHPhenethyl = c1ccc(CCN*)cc1; Nicotinoyl = O=C(c1cccnc1)*; Picolinoyl = O=C(c1ccccn1)*; Orn = NCCC[C@H](N)C(=O)O; CO = O=C([*:1])[*:2]; Bn = c1ccc(C*)cc1

One assay deals with T1, LHRH receptors (Rattus norvegicus, UniProt P30969).
T1 construct: Pituitary membranes containing LHRH receptors are prepared in batches from quick-frozen rat pituitaries; tissue Hilltop Labs; host or cells: rat pituitary membranes
T1 sequence (P30969 1-327): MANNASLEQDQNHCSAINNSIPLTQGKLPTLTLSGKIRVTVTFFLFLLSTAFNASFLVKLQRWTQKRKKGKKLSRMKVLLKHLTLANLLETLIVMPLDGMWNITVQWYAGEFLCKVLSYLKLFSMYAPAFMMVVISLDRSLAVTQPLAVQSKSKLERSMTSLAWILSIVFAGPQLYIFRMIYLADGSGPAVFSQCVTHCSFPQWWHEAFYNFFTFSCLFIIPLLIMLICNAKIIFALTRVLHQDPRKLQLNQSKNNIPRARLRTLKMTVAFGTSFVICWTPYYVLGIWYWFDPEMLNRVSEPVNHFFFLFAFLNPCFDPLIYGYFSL
Description: Receptor Binding (radioligand receptor binding assay). As to conditions: Receptor Binding pkI, table 4; rat pituitary membranes, radioligand 50 pM, 2 hours at 4° C.
Compound `CC(C)C[C@H](NC(=O)[C@@H](Cc1c[nH]c2ccccc12)NC(=O)[C@H](Cc1ccc(O)cc1)N(C)C(=O)[C@H](CO)NC(=O)[C@@H](Cc1c[nH]c2ccccc12)NC(=O)[C@@H](Cc1ccccc1)NC(=O)NCCc1ccccc1)C(=O)N[C@@H](CCCNC(=N)N)C(=O)N1CCC[C@H]1C(=O)N[C@H](C)C(N)=O` [Compound 234, N-(alpha-Phenethylaminocarbonyl)-D-Phe-D-Trp-Ser-NMeTyr-D-Trp-Leu-Arg-Pro-D-AlaNH2] ({NHPhenethyl-CO}-[dF][dW]S[NMeY][dW]LRP[dA]-NH2) gave a Ki of 0.398 nM.

The same assay, now with this note: table 3; rat pituitary membranes, radioiodinated [D-Leu^6 -des Gly^10 ]-LHRH ethyl amide 50 pM, 2 hours at 4° C.; read-out: Receptor Binding pkI (converted).
With `CCNC(=O)[C@@H]1CCCN1C(=O)[C@H](CCCNC(=N)N)NC(=O)[C@H](CC(C)C)NC(=O)[C@@H](Cc1c[nH]c2ccccc12)NC(=O)[C@H](Cc1ccc(O)cc1)NC(=O)[C@H](CO)NC(=O)[C@@H](Cc1c[nH]c2ccccc12)NC(=O)c1cc2cc(F)ccc2[nH]1` [Compound 102, (3-9)[N-(5-Fluoro-2-indolecarbonyl)-D -Trp^3,6 -Pro^9 -NHEt]LHRH] ({Indole2carbonyl(5-F)}-[dW]SY[dW]LRP-NHEt), the Ki was 17.4 nM.
The same measure, in the same setting: under `CCNC(=O)[C@@H]1CCCN1C(=O)[C@H](CCCNC(=N)N)NC(=O)[C@H](CC(C)C)NC(=O)[C@@H](CCCCN)NC(=O)[C@H](Cc1ccc(O)cc1)NC(=O)[C@H](CO)NC(=O)CCc1c[nH]c2ccccc12` [Compound 55, N-(3-(3-Indole)propionyl)-Ser-Tyr-D-Lys-Leu-Arg-Pro-NHEt] ({Propanoyl(3-indol-3-yl)}-SY[dK]LRP-NHEt) stands 15.1 nM; under `CCNC(=O)[C@@H]1CCCN1C(=O)[C@H](CCCNC(=N)N)NC(=O)[C@H](CC(C)C)NC(=O)[C@@H](CCC(N)=O)NC(=O)[C@H](Cc1ccc(O)cc1)NC(=O)[C@H](CO)NC(=O)CCc1c[nH]c2ccccc12` [Compound 50, (4-9)[N-(3-(3-Indole)propionyl)-Ser^4 -D-Gln^6 -Pro^9 -NHEt]LHRH] ({Propanoyl(3-indol-3-yl)}-SY[dQ]LRP-NHEt), 166 nM.
For the compound `CCNC(=O)[C@@H]1CCCN1C(=O)[C@H](CCCNC(=N)N)NC(=O)[C@H](CC(C)C)NC(=O)[C@@H](CCCCNC(=O)c1ccccn1)NC(=O)[C@H](Cc1ccc(O)cc1)NC(=O)[C@H](CO)NC(=O)CCc1c[nH]c2ccccc12` [Compound 53] ({Propanoyl(3-indol-3-yl)}-SY[dK](Picolinoyl)LRP-NHEt), the Ki was 27.5 nM.
Same read-out and setting: under `CCNC(=O)[C@@H]1CCCN1C(=O)[C@H](CCCNC(=N)N)NC(=O)[C@H](CC(C)C)NC(=O)[C@@H](CCCNC(=N)N)NC(=O)[C@H](Cc1ccc(O)cc1)NC(=O)[C@H](COCc1ccccc1)NC(=O)CCc1cccc2ccccc12` [Compound 45, (4-9)[N-(3-(1-Naphthyl)propionyl)-Ser^4 (OBzl)-D-Arg^6 -Pro^9 -NHEt]LHRH] ({Propanoyl(3-(1-naphthyl))}-S(Bn)Y[dR]LRP-NHEt) stands 6.03 nM.

The same assay, now with this note: table 4; rat pituitary membranes, radioligand 50 pM, 2 hours at 4° C.; read-out: Receptor Binding pkI (converted).
Regarding `CC(C)C[C@H](NC(=O)[C@@H](CCCCNC(=O)c1cccnc1)NC(=O)[C@H](Cc1ccc(O)cc1)N(C)C(=O)[C@H](CO)NC(=O)[C@@H](Cc1cccc2ccccc12)NC(=O)CCc1ccc(F)cc1)C(=O)N[C@@H](CCCNC(=N)N)C(=O)N1CCC[C@H]1C(=O)N[C@H](C)C(N)=O` [Compound 174, (3-10)[N-(3-(4-Fluorophenyl)propionyl)-D-1-Nal^3 -NMeTyr^5 -D-Lys^6 (N-epsilon-nicotinyl)-D-Ala^10]LHRH] ({Propanoyl(3-(4-F-phenyl))}-[d1Nal]S[NMeY][dK](Nicotinoyl)LRP[dA]-NH2), the Ki is 0.0132 nM.
Consider `CC(C)C[C@H](NC(=O)[C@@H](CCCCN)NC(=O)[C@H](Cc1ccc(O)cc1)N(C)C(=O)[C@H](CO)NC(=O)[C@@H](Cc1ccc(Cl)cc1)NC(=O)CCc1ccc(F)cc1)C(=O)N[C@@H](CCCNC(=N)N)C(=O)N1CCC[C@H]1C(=O)N[C@H](C)C(N)=O` [Compound 175, (3-10)[N-(3-(4-Fluorophenyl)propionyl)-D-4-Cl-Phe^3 -NMeTyr^5 -D-Lys^6 -D-Ala^10]LHRH] ({Propanoyl(3-(4-F-phenyl))}-[dPhe(4-Cl)]S[NMeY][dK]LRP[dA]-NH2), for which the Ki was 0.00631 nM.
In the case of `CC(C)C[C@H](NC(=O)[C@@H](Cc1c[nH]c2ccccc12)NC(=O)[C@H](Cc1ccc(O)cc1)N(C)C(=O)[C@H](CO)NC(=O)[C@@H](Cc1c[nH]c2ccccc12)NC(=O)CCc1ccc(F)cc1)C(=O)N[C@@H](CCCNC(=N)N)C(=O)N1CCC[C@H]1C(=O)N[C@H](C)C(N)=O` [Compound 164, (3-10)[N-(3-(4-Fluorophenyl)propionyl)-D-Trp^3,6 -NMeTyr^5 -D-Ala^10]LHRH] ({Propanoyl(3-(4-F-phenyl))}-[dW]S[NMeY][dW]LRP[dA]-NH2), the Ki was 0.0537 nM.
The same measure, in the same setting: under `CC(C)C[C@H](NC(=O)[C@@H](CCCCNC(N)=O)NC(=O)[C@H](Cc1ccc(O)cc1)N(C)C(=O)[C@H](CO)NC(=O)[C@@H](Cc1cccc2ccccc12)NC(=O)CCc1ccc(F)cc1)C(=O)N[C@@H](CCCNC(=N)N)C(=O)N1CCC[C@H]1C(=O)N[C@H](C)C(N)=O` [Compound 178, (3-10)[N-(3-(4-Fluorophenyl)propionyl)-D-1-Nal^3 -NMeTyr^5 -D-Hcit^6 -D-Ala^10]LHRH] ({Propanoyl(3-(4-F-phenyl))}-[d1Nal]S[NMeY][d(hCit)]LRP[dA]-NH2) stands 0.00955 nM.
For the compound `CCNC(=O)[C@@H]1CCCN1C(=O)[C@H](CCCNC(=N)N)NC(=O)[C@H](CC(C)C)NC(=O)[C@@H](Cc1c[nH]c2ccccc12)NC(=O)[C@H](Cc1ccc(O)cc1)NC(=O)[C@H](CO)NC(=O)[C@H](Cc1c[nH]c2ccc(F)cc12)NC(=O)CCc1ccc(F)cc1` [Compound 142, (3-9)[N-(3-(4-Fluorophenyl)propionyl) -5-F-Trp^3 -D-Trp^6 -Pro^9 NHEt]LHRH] ({Propanoyl(3-(4-F-phenyl))}-[Trp(5-F)]SY[dW]LRP-NHEt), the Ki was 0.0724 nM.
As to `CCNC(=O)[C@@H]1CCCN1C(=O)[C@H](CCCNC(=N)N)NC(=O)[C@H](CC(C)C)NC(=O)[C@@H](Cc1c[nH]c2ccccc12)NC(=O)[C@H](Cc1ccc(O)cc1)NC(=O)[C@H](CO)NC(=O)[C@@H](Cc1c[nH]c2ccc(F)cc12)NC(=O)CCc1ccc(F)cc1` [Compound 143, (3-9)[N-(3-(4-Fluorophenyl)propionyl)-D -5-F-Trp^3 -D-Trp^6 -Pro^9 NHEt]LHRH] ({Propanoyl(3-(4-F-phenyl))}-[dTrp(5-F)]SY[dW]LRP-NHEt), the Ki is 0.049 nM.
Regarding `CC(=O)NCCC[C@H](NC(=O)c1ccc(F)cc1)C(=O)N[C@H](Cc1cccc2ccccc12)C(=O)N[C@@H](CO)C(=O)N[C@@H](Cc1ccc(O)cc1)C(=O)N[C@H](CCCCNC(=O)c1cccnc1)C(=O)N[C@@H](CC(C)C)C(=O)N[C@@H](CCCNC(=N)N)C(=O)N1CCC[C@H]1C(=O)N[C@H](C)C(N)=O` [Compound 217, N-alpha-(4-Fluorobenzoyl)-Orn(N-delta-acetyl)-D-1-Nal-Ser-Tyr-D-Lys(N-epsilon-nicotinyl)-Leu-Arg-Pro-D-AlaNH2] ({Benzoyl(4-F)}-[Orn](Ac)[d1Nal]SY[dK](Nicotinoyl)LRP[dA]-NH2), the Ki is 1.91 nM.
Same read-out and setting: the result for `CCNC(=O)[C@@H]1CCCN1C(=O)[C@H](CCCN=C(N)N)NC(=O)[C@H](CC(C)C)NC(=O)[C@@H](Cc1c[nH]c2ccccc12)NC(=O)[C@H](Cc1ccc(O)cc1)NC(=O)[C@H](CO)NC(=O)[C@@H](Cc1ccc(O)cc1)NC(=O)CCc1ccc(F)cc1` [Compound 141, (3-9)[N-(3-(4-Fluorophenyl)propionyl) -D-Tyr^3 -D-Trp^6 -Pro^9 NHEt]LHRH] ({Propanoyl(3-(4-F-phenyl))}-[dY]SY[dW]LRP-NHEt) reads 0.0257 nM.
